Laboratory results as given in patent US20260217701A1, “SELECTIVE BET INHIBITORS AND USES THEREOF” (Tay Therapeutics Limited, priority 2022, published 2026).
Several values for one entry are separate records, joined by “and”; a condition that tells them apart may be missing. Identical values can stand only once. Like-named read-outs stand apart in the source and are kept apart here.

Tests used:
[1] = CIA study: pharmacokinetics / plasma concentration after oral administration; format: in vivo, Lewis rats; details: for concentration at 2 h / concentration at 4 h / concentration at 6 h / concentration at 8 h / concentration at 0.25 h / concentration at 0.5 h / concentration at 1 h / concentration at 24 h / Plasma Concentration: oral 3 mg/kg
[2] = UUO study: clinical observations; format: in vivo; details: UUO rats; 10 mg/kg
[3] = Pharmacokinetics of Compound A in the CIA study (groups 8 and 9); format: in vivo; details: Lewis rats
Procedure: (§1) Blood samples were collected from animals in group 8 on Day 0, and blood samples were collected from group 9 on Day 20. Blood samples from group 8 and group 9 were collected at 0.25, 0.5, 1, 2, 4, 8, 10, 12, 13, and 24-hours following morning administration of their first dose of the compound. The second dose of the compound was administered after the 8-hour collection timepoint. All blood samples were collected at the eye socket and put into tubes containing EDTA-K2 as an anticoagulant and centrifuged at 4° C. at 4,000 g for 5 minutes. Plasma was transferred to a separate tube and stored at −75+15° C. for PK analysis. Pharmacokinetic analyses for Compound A in Lewis rats were performed as described in Experimental Method B.
as §1, with “−75±15°” for “−75+15°”, “Pharmacokinetic analyses for Compound A in Lewis rats were performed as described in Experimental Method B.” left out

[4] = test system: BET BD2; experiment: Comparison with other BET inhibitors in development (EC50, selectivity, oral bioavailability; public information)

For Cn1cc(-c2ccccc2)c(-c2cn(C)c(=O)c3[nH]c(-c4cnn(C(F)(F)F)c4)cc23)cc1=O [Compound A, 6-methyl-4-(1-methyl-2-oxo-5-phenyl-1,2-dihydropyridin-4-yl)-2-(1-(trifluoromethyl)-1H-pyrazol-4-yl)-1,6-dihydro-7H-pyrrolo[2,3-c]pyridin-7-one], which Tmax ([1]; Lewis, rat, plasma, po, 3 mg/kg, CIA-induced animals, day 21, 3 mg/kg, individual test subjects, read-out: Tmax) is on record?
The Tmax was 4 h.

And the concentration at 2 h ([1]; Lewis, rat, plasma, po, 3 mg/kg, day 0, 2 h, individual test subjects, read-out: Plasma concentration)?
The concentration at 2 h was 109 ng/mL.

What about the concentration at 4 h ([1]; Lewis, rat, plasma, po, 3 mg/kg, day 0, 4 h, individual test subjects, read-out: Plasma concentration) of the same compound?
Its concentration at 4 h is 112 ng/mL.

And the concentration at 6 h ([1]; Lewis, rat, plasma, po, 3 mg/kg, day 0, 6 h, individual test subjects, read-out: Plasma concentration)?
Its concentration at 6 h is 123 ng/mL.

What about the concentration at 8 h ([1]; Lewis, rat, plasma, po, 3 mg/kg, day 0, 8 h, individual test subjects, read-out: Plasma concentration) of the same compound?
The concentration at 8 h was 119 ng/mL.

What about the concentration at 0.25 h ([1]; Lewis, rat, plasma, po, 3 mg/kg, day 0, time 0.25, read-out: Mean Concentration (average plasma concentration)) of the same compound?
The concentration at 0.25 h was 16.8 ng/mL.

And the concentration at 0.5 h ([1]; Lewis, rat, plasma, po, 3 mg/kg, day 0, time 0.5, read-out: Mean Concentration (average plasma concentration))?
Its concentration at 0.5 h is 28.1 ng/mL.

And the concentration at 1 h ([1]; Lewis, rat, plasma, po, 3 mg/kg, day 0, time 1, read-out: Mean Concentration (average plasma concentration))?
The concentration at 1 h was 51.1 ng/mL.

And the concentration at 2 h ([1]; Lewis, rat, plasma, po, 3 mg/kg, day 0, time 2, read-out: Mean Concentration (average plasma concentration))?
Its concentration at 2 h is 79 ng/mL.

And the concentration at 4 h ([1]; Lewis, rat, plasma, po, 3 mg/kg, day 0, time 4, read-out: Mean Concentration (average plasma concentration))?
Its concentration at 4 h is 90 ng/mL.

And the concentration at 6 h ([1]; Lewis, rat, plasma, po, 3 mg/kg, day 0, time 6, read-out: Mean Concentration (average plasma concentration))?
The concentration at 6 h was 94 ng/mL.

What about the concentration at 8 h ([1]; Lewis, rat, plasma, po, 3 mg/kg, day 0, time 8, read-out: Mean Concentration (average plasma concentration)) of the same compound?
Its concentration at 8 h is 90 ng/mL.

What about the concentration at 24 h ([1]; Lewis, rat, plasma, po, 3 mg/kg, day 0, time 24) of the same compound?
Its concentration at 24 h is 22.3 ng/mL.

And the concentration at 0.25 h ([1]; Lewis, rat, plasma, po, 3 mg/kg, day 21, 0.25 h, individual test subjects, read-out: Plasma concentration)?
Its concentration at 0.25 h is 18.4 ng/mL.

And the concentration at 0.5 h ([1]; Lewis, rat, plasma, po, 3 mg/kg, day 21, 0.5 h, individual test subjects, read-out: Plasma concentration)?
Its concentration at 0.5 h is 22.2 ng/mL.

And the concentration at 1 h ([1]; Lewis, rat, plasma, po, 3 mg/kg, day 21, 1 h, individual test subjects, read-out: Plasma concentration)?
Its concentration at 1 h is 33.6 ng/mL.

And the concentration at 2 h ([1]; Lewis, rat, plasma, po, 3 mg/kg, day 21, 2 h, individual test subjects, read-out: Plasma concentration)?
The concentration at 2 h was 33 ng/mL.

What about the concentration at 4 h ([1]; Lewis, rat, plasma, po, 3 mg/kg, day 21, 4 h, individual test subjects, read-out: Plasma concentration) of the same compound?
The concentration at 4 h was 48.3 ng/mL.

What about the concentration at 6 h ([1]; Lewis, rat, plasma, po, 3 mg/kg, day 21, 6 h, individual test subjects, read-out: Plasma concentration) of the same compound?
The concentration at 6 h was 44.2 ng/mL.

What about the concentration at 8 h ([1]; Lewis, rat, plasma, po, 3 mg/kg, day 21, 8 h, individual test subjects, read-out: Plasma concentration) of the same compound?
The concentration at 8 h was 30.9 ng/mL.

What about the concentration at 0.25 h ([1]; Lewis, rat, plasma, po, 3 mg/kg, day 21, time 0.25, read-out: Mean Concentration (average plasma concentration)) of the same compound?
Its concentration at 0.25 h is 15.4 ng/mL.

What about the concentration at 0.5 h ([1]; Lewis, rat, plasma, po, 3 mg/kg, day 21, time 0.5, read-out: Mean Concentration (average plasma concentration)) of the same compound?
The concentration at 0.5 h was 21 ng/mL.

What about the concentration at 1 h ([1]; Lewis, rat, plasma, po, 3 mg/kg, day 21, time 1, read-out: Mean Concentration (average plasma concentration)) of the same compound?
Its concentration at 1 h is 28.7 ng/mL.

What about the concentration at 2 h ([1]; Lewis, rat, plasma, po, 3 mg/kg, day 21, time 2, read-out: Mean Concentration (average plasma concentration)) of the same compound?
Its concentration at 2 h is 37.5 ng/mL.

What about the concentration at 4 h ([1]; Lewis, rat, plasma, po, 3 mg/kg, day 21, time 4, read-out: Mean Concentration (average plasma concentration)) of the same compound?
The concentration at 4 h was 45.8 ng/mL.

What about the concentration at 6 h ([1]; Lewis, rat, plasma, po, 3 mg/kg, day 21, time 6, read-out: Mean Concentration (average plasma concentration)) of the same compound?
Its concentration at 6 h is 47 ng/mL.

And the concentration at 8 h ([1]; Lewis, rat, plasma, po, 3 mg/kg, day 21, time 8, read-out: Mean Concentration (average plasma concentration))?
Its concentration at 8 h is 40.6 ng/mL.

What about the concentration at 24 h ([1]; Lewis, rat, plasma, po, 3 mg/kg, day 21, time 24) of the same compound?
Its concentration at 24 h is 12.2 ng/mL.

What about the AUC ([1]; Lewis, rat, plasma, po, CIA-induced animals, day 21, 3 mg/kg, average, read-out: AUClnf (Mean)) of the same compound?
Its AUC is 904 ng·h/mL.

What about the Plasma Concentration ([1]; day 0, 0.25 h, individual test subjects, 3 mg/kg) of the same compound?
The Plasma Concentration was 28.7 ng/mL and 12.9 ng/mL and 8.85 ng/mL.

What about the Plasma Concentration ([1]; day 0, 0.5 h, individual test subjects, 3 mg/kg) of the same compound?
Its Plasma Concentration is 39.3 ng/mL and 25.4 ng/mL and 19.5 ng/mL.

And the Plasma Concentration ([1]; day 0, 1 h, individual test subjects, 3 mg/kg)?
The Plasma Concentration was 78.4 ng/mL and 40.1 ng/mL and 34.7 ng/mL.

And the Plasma Concentration ([1]; day 0, 2 h, individual test subjects, 3 mg/kg)?
Its Plasma Concentration is 66.0 ng/mL and 62.7 ng/mL.

And the Plasma Concentration ([1]; day 0, 4 h, individual test subjects, 3 mg/kg)?
Its Plasma Concentration is 77.9 ng/mL and 80.7 ng/mL.

And the Plasma Concentration ([1]; day 0, 6 h, individual test subjects, 3 mg/kg)?
Its Plasma Concentration is 77.1 ng/mL and 82.6 ng/mL.

And the Plasma Concentration ([1]; day 0, 8 h, individual test subjects, 3 mg/kg)?
The Plasma Concentration was 76.1 ng/mL and 74.4 ng/mL.

And the Plasma Concentration ([1]; day 0, 24 h, individual test subjects, 3 mg/kg)?
The Plasma Concentration was 35.6 ng/mL and 14.1 ng/mL and 17.3 ng/mL.

What about the Plasma Concentration ([1]; day 21, 0.25 h, individual test subjects, 3 mg/kg) of the same compound?
Its Plasma Concentration is 14.7 ng/mL and 13.1 ng/mL.

And the Plasma Concentration ([1]; day 21, 0.5 h, individual test subjects, 3 mg/kg)?
The Plasma Concentration was 20.9 ng/mL and 19.8 ng/mL.

And the Plasma Concentration ([1]; day 21, 1 h, individual test subjects, 3 mg/kg)?
Its Plasma Concentration is 27.0 ng/mL and 25.5 ng/mL.

And the Plasma Concentration ([1]; day 21, 2 h, individual test subjects, 3 mg/kg)?
The Plasma Concentration was 45.6 ng/mL and 33.8 ng/mL.

And the Plasma Concentration ([1]; day 21, 4 h, individual test subjects, 3 mg/kg)?
Its Plasma Concentration is 44.3 ng/mL and 44.7 ng/mL.

What about the Plasma Concentration ([1]; day 21, 6 h, individual test subjects, 3 mg/kg) of the same compound?
Its Plasma Concentration is 51.2 ng/mL and 45.7 ng/mL.

What about the Plasma Concentration ([1]; day 21, 8 h, individual test subjects, 3 mg/kg) of the same compound?
The Plasma Concentration was 45.6 ng/mL and 45.3 ng/mL.

What about the Plasma Concentration ([1]; day 21, 24 h, individual test subjects, 3 mg/kg) of the same compound?
The Plasma Concentration was 6.60 ng/mL and 15.6 ng/mL and 14.4 ng/mL.

And the “Clinical observations assessed daily” value [2]?
Its value is “soft stools on just one study day”.

What about the “period of increasing plasma concentration after oral administration” value [3] of the same compound?
The value was “approximately the first four hours”.

And the “selectivity relative to other BET inhibitors” value ([4]; same comparators)?
The value was “higher selectivity”.

What about the “EC50 relative to other BET inhibitors” value ([4]; vs NUV-868, ABBV-744, GSK620, Pelabresib, ABBV-075, MK-8628/OTX-015, BI-894999) of the same compound?
Its value is “lower EC50”.
